Measured values reported in ChEMBL document CHEMBL4507329, “Data for DCP probe BTZO-1” (2021).
Calls of active or inactive are those of the source.

Key:
[1] = biological target: 5-hydroxytryptamine receptor 6 (Homo sapiens) (UniProt P50406); conditions: Compound concentration 10.0 uM
[2] = biological target: Activin receptor type-2B (Homo sapiens) (UniProt Q13705); conditions: Compound concentration 1000.0 nM
[3] = biological target: Muscarinic acetylcholine receptor M1 (Homo sapiens) (UniProt P11229); conditions: Compound concentration 10.0 uM
[4] = biological target: Serine/threonine-protein kinase NLK (Homo sapiens) (UniProt Q9UBE8); conditions: Compound concentration 1000.0 nM
[5] = biological target: Macrophage migration inhibitory factor (Homo sapiens, UniProt P14174); test: Scintillation proximity assay (SPA) measurement of selective [3H]-BTZO-1 binding to hMIF-His
[6] = biological target: T1, Macrophage migration inhibitory factor (Homo sapiens) (UniProt P14174); test: Apoptosis inhibition
T1 sequence (whole entry): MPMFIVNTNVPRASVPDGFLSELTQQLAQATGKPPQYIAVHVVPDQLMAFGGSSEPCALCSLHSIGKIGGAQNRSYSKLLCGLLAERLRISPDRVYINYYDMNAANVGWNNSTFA

[7] = biological target: Tyrosine-protein kinase Blk (Homo sapiens) (UniProt P51451); conditions: Compound concentration 1000.0 nM
[8] = biological target: Macrophage migration inhibitory factor (Rattus norvegicus, UniProt P30904); test: Scintillation proximity assay (SPA) measurement of selective [3H]-BTZO-1 binding to rMIF-His
[9] = biological target: GABA-A receptor; anion channel (Rattus norvegicus) (UniProt O09028+P15431+P18506+P18508+P19969+P20236+P23574+P23576+P28471+P28473+P30191+P62813+P63079+P63138+Q91ZM7+Q9ES14); conditions: Compound concentration 10.0 uM
[10] = biological target: Cyclin-dependent kinase 8 (Homo sapiens, UniProt P49336); test: Inhibition of CDK8 at compound concentration of 10.0 uM using the ScanMax (DiscoverX)
[11] = biological target: GABA-A receptor; anion channel; test: GPCRScan assay: inhibition of GABAA/BZP; type: protein-complex assay, Rattus norvegicus; set-up: radioligand conc. used [nm] 0.6 – 4.0, parental cells brain tissue
[12] = biological target: T2, Death-associated protein kinase 3 (Homo sapiens, UniProt O43293); conditions: Compound concentration 1000.0 nM
Target sequence in this assay (O43293 whole entry, looked up): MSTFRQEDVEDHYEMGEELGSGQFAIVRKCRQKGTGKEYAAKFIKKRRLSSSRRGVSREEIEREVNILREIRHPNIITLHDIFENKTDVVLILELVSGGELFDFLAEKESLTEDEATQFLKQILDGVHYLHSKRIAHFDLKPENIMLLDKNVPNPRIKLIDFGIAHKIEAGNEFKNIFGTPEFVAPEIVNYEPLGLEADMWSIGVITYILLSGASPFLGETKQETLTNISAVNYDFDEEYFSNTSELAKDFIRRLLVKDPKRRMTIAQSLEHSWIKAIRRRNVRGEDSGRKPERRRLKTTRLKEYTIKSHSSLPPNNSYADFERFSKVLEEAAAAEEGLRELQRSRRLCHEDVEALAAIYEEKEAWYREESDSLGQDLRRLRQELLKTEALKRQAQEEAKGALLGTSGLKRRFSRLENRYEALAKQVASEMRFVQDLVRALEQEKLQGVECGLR

[13] = biological target: Sigma intracellular receptor 2 (Homo sapiens) (UniProt Q5BJF2); conditions: Compound concentration 10.0 uM
[14] = biological target: Sigma non-opioid intracellular receptor 1 (Homo sapiens) (UniProt Q99720); conditions: Compound concentration 10.0 uM
[15] = biological target: Ephrin type-B receptor 4 (Homo sapiens) (UniProt P54760); conditions: Compound concentration 1000.0 nM
[16] = biological target: SNF-related serine/threonine-protein kinase (Homo sapiens) (UniProt Q9NRH2); conditions: Compound concentration 1000.0 nM
[17] = biological target: 5-hydroxytryptamine receptor 1D (Homo sapiens) (UniProt P28221); conditions: Compound concentration 10.0 uM
[18] = biological target: Histamine H1 receptor (Homo sapiens) (UniProt P35367); conditions: Compound concentration 10.0 uM
[19] = biological target: Muscarinic acetylcholine receptor M4 (Homo sapiens) (UniProt P08173); conditions: Compound concentration 10.0 uM
[20] = biological target: 5-hydroxytryptamine receptor 7 (Homo sapiens) (UniProt P34969); conditions: Compound concentration 10.0 uM
[21] = biological target: Alpha-1A adrenergic receptor (Homo sapiens) (UniProt P35348); conditions: Compound concentration 10.0 uM
[22] = biological target: G protein-coupled receptor kinase 3 (Homo sapiens, UniProt P35626); test: Inhibition of GRK3 at compound concentration of 10.0 uM using the ScanMax (DiscoverX)
[23] = biological target: T2, Death-associated protein kinase 3; test: Inhibition of DAPK3 at compound concentration of 10.0 uM using the ScanMax (DiscoverX)
Target sequence in this assay (O43293 whole entry): as the sequence (O43293 whole entry, looked up) above

[24] = biological target: 5-hydroxytryptamine receptor 5A (Homo sapiens) (UniProt P47898); conditions: Compound concentration 10.0 uM

Chain of Activin receptor type-2B (Homo sapiens) (Q13705 whole entry): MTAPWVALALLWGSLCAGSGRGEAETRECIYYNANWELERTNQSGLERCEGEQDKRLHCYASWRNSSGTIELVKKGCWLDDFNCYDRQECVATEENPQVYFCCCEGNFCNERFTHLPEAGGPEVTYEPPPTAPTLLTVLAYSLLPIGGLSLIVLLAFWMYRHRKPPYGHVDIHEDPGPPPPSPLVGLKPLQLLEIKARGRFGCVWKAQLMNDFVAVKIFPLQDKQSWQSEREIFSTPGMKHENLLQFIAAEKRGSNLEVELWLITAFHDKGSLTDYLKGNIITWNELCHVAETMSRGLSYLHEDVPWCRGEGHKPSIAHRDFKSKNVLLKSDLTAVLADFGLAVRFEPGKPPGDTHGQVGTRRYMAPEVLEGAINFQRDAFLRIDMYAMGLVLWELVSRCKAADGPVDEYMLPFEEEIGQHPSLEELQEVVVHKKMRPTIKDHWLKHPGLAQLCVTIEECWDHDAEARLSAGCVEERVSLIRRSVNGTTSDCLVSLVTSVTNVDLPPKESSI
Chain of Ephrin type-B receptor 4 (Homo sapiens) (P54760 whole entry): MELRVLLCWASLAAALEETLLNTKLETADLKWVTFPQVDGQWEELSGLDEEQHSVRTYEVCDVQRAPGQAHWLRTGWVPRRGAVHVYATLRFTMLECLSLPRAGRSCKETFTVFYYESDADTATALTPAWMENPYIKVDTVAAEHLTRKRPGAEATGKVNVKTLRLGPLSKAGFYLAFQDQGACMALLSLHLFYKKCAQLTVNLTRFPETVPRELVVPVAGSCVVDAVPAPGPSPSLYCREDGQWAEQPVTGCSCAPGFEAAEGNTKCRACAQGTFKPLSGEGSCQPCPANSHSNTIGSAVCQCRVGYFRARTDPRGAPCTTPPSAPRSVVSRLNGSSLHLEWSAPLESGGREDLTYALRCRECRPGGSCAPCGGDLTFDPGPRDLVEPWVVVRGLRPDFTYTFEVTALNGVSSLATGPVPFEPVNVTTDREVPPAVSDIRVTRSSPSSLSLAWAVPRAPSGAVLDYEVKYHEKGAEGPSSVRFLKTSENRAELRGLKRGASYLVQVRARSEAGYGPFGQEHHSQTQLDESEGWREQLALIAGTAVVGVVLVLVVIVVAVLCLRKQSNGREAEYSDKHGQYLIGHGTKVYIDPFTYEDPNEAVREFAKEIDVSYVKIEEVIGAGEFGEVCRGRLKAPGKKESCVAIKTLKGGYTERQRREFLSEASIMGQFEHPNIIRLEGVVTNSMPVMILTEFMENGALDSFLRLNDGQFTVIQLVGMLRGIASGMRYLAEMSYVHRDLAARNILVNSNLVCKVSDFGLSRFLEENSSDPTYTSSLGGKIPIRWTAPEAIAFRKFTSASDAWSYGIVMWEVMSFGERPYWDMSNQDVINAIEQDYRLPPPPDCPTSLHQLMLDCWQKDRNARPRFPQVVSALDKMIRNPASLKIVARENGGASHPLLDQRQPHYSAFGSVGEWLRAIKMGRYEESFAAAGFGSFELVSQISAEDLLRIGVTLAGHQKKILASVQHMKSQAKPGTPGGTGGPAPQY
Chain of Tyrosine-protein kinase Blk (Homo sapiens) (P51451 2-505 limits assumed): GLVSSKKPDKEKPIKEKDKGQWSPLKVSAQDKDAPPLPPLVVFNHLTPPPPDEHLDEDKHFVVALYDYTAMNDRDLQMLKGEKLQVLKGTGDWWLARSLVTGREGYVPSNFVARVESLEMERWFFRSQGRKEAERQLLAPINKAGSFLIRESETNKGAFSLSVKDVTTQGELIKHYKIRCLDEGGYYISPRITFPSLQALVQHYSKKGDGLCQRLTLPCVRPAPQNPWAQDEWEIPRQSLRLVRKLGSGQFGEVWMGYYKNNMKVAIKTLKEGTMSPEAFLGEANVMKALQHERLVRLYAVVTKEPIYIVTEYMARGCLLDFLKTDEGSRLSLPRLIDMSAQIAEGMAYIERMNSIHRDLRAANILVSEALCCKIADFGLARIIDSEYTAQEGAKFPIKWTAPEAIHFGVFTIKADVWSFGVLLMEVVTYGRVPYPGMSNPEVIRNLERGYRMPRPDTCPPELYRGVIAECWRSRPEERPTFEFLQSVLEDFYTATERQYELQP
Chain of Serine/threonine-protein kinase NLK (Homo sapiens) (Q9UBE8 whole entry): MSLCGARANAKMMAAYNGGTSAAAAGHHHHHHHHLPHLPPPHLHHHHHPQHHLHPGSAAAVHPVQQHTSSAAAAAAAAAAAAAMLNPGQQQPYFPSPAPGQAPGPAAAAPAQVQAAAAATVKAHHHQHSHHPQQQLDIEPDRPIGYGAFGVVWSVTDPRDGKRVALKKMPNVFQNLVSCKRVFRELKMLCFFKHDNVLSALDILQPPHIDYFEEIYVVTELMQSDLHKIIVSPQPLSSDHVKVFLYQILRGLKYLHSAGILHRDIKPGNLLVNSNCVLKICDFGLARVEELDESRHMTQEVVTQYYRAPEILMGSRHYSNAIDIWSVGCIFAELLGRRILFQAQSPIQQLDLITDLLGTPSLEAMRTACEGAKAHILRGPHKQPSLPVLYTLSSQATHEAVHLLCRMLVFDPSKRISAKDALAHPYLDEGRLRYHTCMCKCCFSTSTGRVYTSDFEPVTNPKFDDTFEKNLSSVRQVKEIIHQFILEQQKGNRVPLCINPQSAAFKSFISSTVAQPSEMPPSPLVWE
Chain of SNF-related serine/threonine-protein kinase (Homo sapiens) (Q9NRH2 whole entry): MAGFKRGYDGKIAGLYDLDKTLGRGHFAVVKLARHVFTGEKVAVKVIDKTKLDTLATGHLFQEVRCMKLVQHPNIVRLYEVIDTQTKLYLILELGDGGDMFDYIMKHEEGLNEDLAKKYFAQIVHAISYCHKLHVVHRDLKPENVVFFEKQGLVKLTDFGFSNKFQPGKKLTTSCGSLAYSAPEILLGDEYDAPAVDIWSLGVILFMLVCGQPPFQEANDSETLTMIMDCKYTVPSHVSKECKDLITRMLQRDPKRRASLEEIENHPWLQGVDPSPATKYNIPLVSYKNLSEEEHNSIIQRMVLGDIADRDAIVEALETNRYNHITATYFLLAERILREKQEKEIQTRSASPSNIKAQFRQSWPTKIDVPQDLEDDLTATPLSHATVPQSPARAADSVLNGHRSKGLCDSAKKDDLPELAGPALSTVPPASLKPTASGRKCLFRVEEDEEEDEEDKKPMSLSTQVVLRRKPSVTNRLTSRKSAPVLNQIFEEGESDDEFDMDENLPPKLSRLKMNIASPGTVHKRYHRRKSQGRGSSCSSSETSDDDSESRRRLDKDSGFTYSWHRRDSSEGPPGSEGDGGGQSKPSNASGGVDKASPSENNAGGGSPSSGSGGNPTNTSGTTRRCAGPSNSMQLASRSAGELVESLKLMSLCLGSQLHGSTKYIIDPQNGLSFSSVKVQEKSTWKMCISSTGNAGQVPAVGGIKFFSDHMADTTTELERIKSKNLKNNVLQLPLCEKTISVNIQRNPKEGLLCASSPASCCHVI
Chain of Muscarinic acetylcholine receptor M4 (Homo sapiens) (P08173 whole entry): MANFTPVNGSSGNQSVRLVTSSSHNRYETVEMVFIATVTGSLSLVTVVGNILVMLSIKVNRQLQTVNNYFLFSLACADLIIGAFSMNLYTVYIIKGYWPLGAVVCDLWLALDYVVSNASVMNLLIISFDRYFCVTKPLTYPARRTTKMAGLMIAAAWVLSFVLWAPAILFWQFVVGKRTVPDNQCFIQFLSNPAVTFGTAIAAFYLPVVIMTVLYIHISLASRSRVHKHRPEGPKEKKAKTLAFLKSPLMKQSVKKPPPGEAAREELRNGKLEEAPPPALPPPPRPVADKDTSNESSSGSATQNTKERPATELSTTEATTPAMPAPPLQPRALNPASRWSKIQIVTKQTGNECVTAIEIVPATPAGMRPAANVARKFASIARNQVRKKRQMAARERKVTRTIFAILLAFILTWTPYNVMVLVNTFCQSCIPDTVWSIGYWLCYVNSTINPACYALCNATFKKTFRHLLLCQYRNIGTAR
Chain of 5-hydroxytryptamine receptor 1D (Homo sapiens) (P28221 whole entry): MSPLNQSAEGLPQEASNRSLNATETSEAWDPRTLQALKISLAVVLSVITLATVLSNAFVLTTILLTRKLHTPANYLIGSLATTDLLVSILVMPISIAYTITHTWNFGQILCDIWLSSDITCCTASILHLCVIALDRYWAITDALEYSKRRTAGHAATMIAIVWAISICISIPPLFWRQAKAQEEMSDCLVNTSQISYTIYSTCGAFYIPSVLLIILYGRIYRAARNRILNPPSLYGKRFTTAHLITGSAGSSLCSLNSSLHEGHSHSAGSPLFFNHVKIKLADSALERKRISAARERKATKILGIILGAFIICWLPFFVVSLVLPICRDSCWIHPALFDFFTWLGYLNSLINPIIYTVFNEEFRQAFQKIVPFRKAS
Chain of Macrophage migration inhibitory factor (Rattus norvegicus, UniProt P30904) (P30904 2-115 limits assumed): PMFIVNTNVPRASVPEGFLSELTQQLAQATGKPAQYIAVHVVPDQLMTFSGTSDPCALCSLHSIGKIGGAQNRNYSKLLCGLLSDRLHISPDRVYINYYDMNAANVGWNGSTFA
Chain of Sigma non-opioid intracellular receptor 1 (Homo sapiens) (Q99720 whole entry): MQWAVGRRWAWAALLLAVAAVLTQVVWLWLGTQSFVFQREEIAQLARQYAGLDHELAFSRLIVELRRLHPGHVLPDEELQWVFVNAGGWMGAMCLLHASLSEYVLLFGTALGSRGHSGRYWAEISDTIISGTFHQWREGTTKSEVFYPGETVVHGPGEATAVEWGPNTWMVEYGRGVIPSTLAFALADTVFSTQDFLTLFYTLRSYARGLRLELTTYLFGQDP

O=c1nc(-c2ccccn2)sc2ccccc12 [BTZO-1]
> 10000 nM (not active): Kd [10]
active: Kd [5] 68.6 nM | MEC1.5 [6] 16 nM | Kd [8] 157 nM
inactive: inhibition [1] -1.33% | residual activity [2] 100% | inhibition [3] -5.27% | residual activity [4] 100% | residual activity [7] 88% | inhibition [9] 6.23% | residual activity [12] 91% | inhibition [13] 12.5% | inhibition [14] 14% | residual activity [15] 100% | residual activity [16] 100%
934 nM: Ki [11]

O=C1NC(c2ccccn2)Sc2ccccc21 (stereo not given) [BTZO-4]
> 10000 nM (not active): Kd [22] | Kd [23]
active: residual activity [12] 0%
inactive: residual activity [2] 100% | residual activity [4] 100% | inhibition [17] -4.84% | inhibition [18] 49.9% | residual activity [7] 77% | inhibition [19] -4.7% | inhibition [20] -5.1% | inhibition [21] -9.97% | inhibition [24] 1.93% | residual activity [15] 100% | residual activity [16] 94%
